Measurements taken from BigSolDB 2.1.

CC(=O)N1CCN(c2ccc(OC[C@@H]3CO[C@@](Cn4ccnc4)(c4ccc(Cl)cc4Cl)O3)cc2)CC1 (racemic)
Conditions | solubility (mole fraction)
in PEG-200, 298.2 K | 0.00611
in PEG-200, 303.2 K | 0.00718
in PEG-200, 308.2 K | 0.00908
in PEG-200, 313.2 K | 0.0118
in PEG-200, 318.2 K | 0.0144

in water
Conditions | solubility (mole fraction)
298.2 K | 4e-07
303.2 K | 5e-07
308.2 K | 5e-07
313.2 K | 7e-07
318.2 K | 9e-07
